This test deals with DU-145 cells. Type of test: cell-based, human.

For `C=C1[C@@H](C)[C@H]2[C@H](Cc3ccccc3)NC(=O)[C@]23[C@H](OC(C)=O)/C=C/[C@@](C)(O)C(=O)[C@@H](C)C/C=C/[C@H]3[C@@H]1O` [Cytochalasin-D], the “Relative Wound Density at 24 Hours, Mean” value is reported as 3.3 ± 0.2; the “Relative Wound Density at 24 Hours, Percent Relative to Media” value is given as 4%; the “effect on cell migration (in words)” value is listed as “did not migrate”.

For the origin of these results see patent US20110110911A1 (priority 2009, published 2011).
